Source: ChEMBL document CHEMBL1153050, “Amidine derived inhibitors of acid-sensing ion channel-3 (ASIC3)” (Bioorg Med Chem Lett, 2009)
pIC50: −log10 of the molar value. Activity calls are given as the source filed them. The rule behind the calls is not given here.

Tests used:
[1] = target: T1, Acid-sensing ion channel 3 (Homo sapiens) (UniProt Q9UHC3); test: Inhibition of ASIC3 at 1 uM by patch-clamp electrophysiology assay relative to baseline peak current
T1 sequence (whole entry): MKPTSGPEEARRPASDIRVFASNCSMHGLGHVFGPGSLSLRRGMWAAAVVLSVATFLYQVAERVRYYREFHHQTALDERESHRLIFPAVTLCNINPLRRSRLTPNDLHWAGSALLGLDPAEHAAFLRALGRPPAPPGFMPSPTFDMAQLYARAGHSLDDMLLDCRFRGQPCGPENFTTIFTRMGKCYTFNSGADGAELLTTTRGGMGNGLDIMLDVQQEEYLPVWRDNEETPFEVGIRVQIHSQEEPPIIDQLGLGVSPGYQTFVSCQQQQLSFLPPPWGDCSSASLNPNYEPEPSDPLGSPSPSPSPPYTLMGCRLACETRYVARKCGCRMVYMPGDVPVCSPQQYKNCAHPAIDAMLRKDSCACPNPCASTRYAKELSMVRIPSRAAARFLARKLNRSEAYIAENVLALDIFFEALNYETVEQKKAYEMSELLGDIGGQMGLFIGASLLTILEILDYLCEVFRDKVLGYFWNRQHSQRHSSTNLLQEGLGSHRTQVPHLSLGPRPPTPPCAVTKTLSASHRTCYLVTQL

[2] = target: T2, Acid-sensing ion channel 3 (Homo sapiens, UniProt Q9UHC3); test: Inhibition of ASIC3 by patch-clamp electrophysiology assay
T2 sequence (Q9UHC3 whole entry): T1 sequence (whole entry)

[3] = Plasma clearance in iv dosed rat; assay type: ADME, organism-based
Rattus norvegicus [4] = test: Analgesic activity against complete Freund's adjuvant-induced […] in Sprague-Dawley rat assessed as reversal of mechanical hypersensitivity at 20 mg/kg, po after 30 mins; assay type: functional, organism-based; parameters: dose 20 mg/kg
[5] = Half life in iv dosed rat blood; assay type: ADME, organism-based; details: whole blood
[6] = Blood clearance in iv dosed rat; assay type: ADME, organism-based; details: whole blood
[7] = target: T1, Acid-sensing ion channel 3 (Homo sapiens); test: Inhibition of ASIC3 at 10 uM by patch-clamp electrophysiology assay relative to baseline peak current
[8] = Half life in iv dosed rat plasma; assay type: ADME, organism-based
Rattus norvegicus [9] = test: Analgesic activity against complete Freund's adjuvant-induced […] in Sprague-Dawley rat assessed as reversal of mechanical hypersensitivity at 30 mg/kg, ip after 30 mins; assay type: functional, organism-based; parameters: dose 30 mg/kg

inhibition [1] | pIC50 [2] | inhibition [7] | SMILES | other results
18% |  |  | N=C(N)c1ccc2cc(-c3ccccc3)[nH]c2c1 | 
94% |  |  | N=C(N)c1ccc2[nH]c(-c3cc(Cl)cc(-c4ccccc4)c3)cc2c1 | 
87% | 7.29 |  | Cc1cc(Cl)cc(-c2cc3cc(C(=N)N)ccc3[nH]2)c1 | 
92% | 6.88 | 98% | N=C(N)c1ccc2[nH]c(-c3cc(Cl)cc(Cl)c3)cc2c1 | clearance [3]: 8.5 mL/min/kg; Activity (Rattus norvegicus [4]): Active; half-life [5]: 264 min; clearance [6]: 8.5 mL/min/kg; half-life [8]: 120 min; Activity (Rattus norvegicus [9]): Active
93% | 7.23 | 96% | N=C(N)c1ccc2[nH]c(-c3cc(F)cc(Br)c3)cc2c1 | 
77% | 6.43 | 98% | COc1cc(F)cc(-c2cc3cc(C(=N)N)ccc3[nH]2)c1 | 
33% |  | 83% | N=C(N)c1ccc(-c2cc3ccc(C(=N)N)cc3[nH]2)cc1 | 
84% | 6.54 |  | N=C(N)c1ccc2[nH]c(-c3cc(Cl)nc(Cl)c3)cc2c1 | 
 |  | 53% | N=C(N)c1ccc(-c2nc3cc(C(=N)N)ccc3[nH]2)cc1 | 
92% | 7.23 | 92% | N=C(N)c1ccc2[nH]c(-c3cc(Br)cc(Br)c3)cc2c1 | 
91% | 6.87 |  | N=C(N)c1ccc2[nH]c(-c3cc(Cl)cc(Cl)c3Cl)cc2c1 | 
83% | 6.94 |  | N=C(N)c1ccc2[nH]c(-c3cc(Cl)cc(CNc4ccccc4)c3)cc2c1 | 
14% |  |  | Cn1c(-c2ccc(C(=N)N)cc2)cc2cc(C(=N)N)ccc21 | 
91% | 7.11 |  | N=C(N)c1ccc2[nH]c(-c3cc(Cl)cc(NCc4ccccc4)c3)cc2c1 | 
 |  | 46% | N=C(N)c1ccc(-c2cc3ccccc3[nH]2)cc1 | 
 | 5.56 | 88% | N=C(N)c1ccc2[nH]c(-c3ccccc3)cc2c1 | 
82% | 6.56 | 99% | N=C(N)c1ccc2[nH]c(-c3cc(F)cc(Cl)c3)cc2c1 | 
78% | 7.02 |  | N=C(N)c1ccc2[nH]c(-c3cc(N)cc(Cl)c3)cc2c1 | 

SMILES | inhibition [1] | pIC50 [2] | inhibition [7] | other results
N#Cc1c(Cl)cc(-c2cc3cc(C(=N)N)ccc3[nH]2)cc1Cl | 83% | 6.57 |  | 
